Where a name gives a salt, the structure may show the parent alone.
Assays:
[1] = tested on: SARS-CoV-2; experiment: Anti-SARS-CoV-2 activity in A549 cells expressing the human ACE2 receptor (inhibition of SARS-CoV-2 replication); format: cell-based; settings: for EC50: Severe acute respiratory syndrome coronavirus 2, A549-ACE2, 24 h, read-out: Antiviral Activity (EC50); for antiviral potency in A549 cells in comparison with compound Ref-2: versus Ref-2 (FIG. 7)
[2] = target: SARS-CoV-2 3CLpro (Severe acute respiratory syndrome coronavirus 2, UniProt P0DTD1); experiment: biochemical; settings: inhibition of SARS-CoV-2 3CLpro; 15 nM 3CLpro, 25 μM fluorogenic substrate, 37° C.; read-out: Inhibitory Activity (IC50)

Structure (SMILES): CN(C)C1CN(C(=O)c2cc(Br)cc([N+](=O)[O-])c2N[C@H]2CN(C(=O)c3cncc4ccccc34)CCC2(F)F)C1 [Compound 47]
- EC50 [1]: < 0.1 µM
- IC50 [2]: < 0.1 µM

Structure (SMILES): CNC(=O)c1cc(Br)cc([N+](=O)[O-])c1NC1CCC2(C1)CN(C(=O)c1cncc3ccccc13)C2 (stereo not drawn) [Compound 127, 5-bromo-2-((2-(isoquinoline-4-carbonyl)-2-azaspiro[3, 4]octan-6-yl)amino)-N-methyl-3-nitrobenzamide]
- EC50 [1]: > 10 µM
- IC50 [2]: 1 to 10 µM

Structure (SMILES): CC(NC(=O)c1cc(Br)cc([N+](=O)[O-])c1N[C@@H]1CCCC[C@@H]1NC(=O)c1cncc2ccccc12)C(F)(F)F (stereo partly drawn) [Compound 60, N-((1S, 2R)-2-((4-bromo-2-nitro-6-((1,1,1-trifluoropropan-2-yl)carbamoyl)phenyl)amino)cyclohexyl)isoquinoline-4-carboxamide]
- EC50 [1]: 0.1 to 1 µM
- IC50 [2]: 0.1 to 1 µM

Structure (SMILES): O=C(c1cc(Br)cc([N+](=O)[O-])c1N[C@H]1CN(C(=O)c2cncc3ccccc23)CCC1(F)F)N1CC(F)(F)C1 [Compound 36, (S)-(5-bromo-2-((4,4-difluoro-1-(isoquinoline-4-carbonyl)piperidin-3-yl)amino)-3-nitrophenyl)(3,3-difluoroazetidin-1-yl)methanone]
- EC50 [1]: < 0.1 µM
- IC50 [2]: < 0.1 µM

Structure (SMILES): Cn1cc(NC(=O)c2cc(Cl)cc([N+](=O)[O-])c2N[C@H]2CN(C(=O)c3cncc4ccccc34)CCC2(F)F)cn1 [Compound 41, (S)-5-chloro-2-((4,4-difluoro-1-(isoquinoline-4-carbonyl)piperidin-3-yl)amino)-N-(1-methyl-1H-pyrazol-4-yl)-3-nitrobenzamide]
- antiviral potency in A549 cells in comparison with compound Ref-2 [1]: better antiviral potency
- EC50 [1]: < 0.1 µM
- IC50 [2]: < 0.1 µM

Structure (SMILES): CNC(=O)c1cc(Br)cc([N+](=O)[O-])c1N[C@@H]1CN(C)CC[C@@H]1NC(=O)c1cncc2ccccc12 [Compound 89, N-((3R,4S)-3-((4-bromo-2-(methylcarbamoyl)-6-nitrophenyl)amino)-1-methylpiperidin-4-yl)isoquinoline-4-carboxamide]
- EC50 [1]: 1 to 10 µM
- IC50 [2]: 1 to 10 µM

Structure (SMILES): O=C(N[C@H]1CCCC[C@H]1Nc1c(C(=O)N2CC(F)(F)C2)cc(Br)cc1[N+](=O)[O-])c1cncc2ccccc12 [Compound 14, N-((1S, 2R)-2-((4-bromo-2-(3,3-difluoroazetidine-1-carbonyl)-6-nitrophenyl)amino)cyclohexyl)isoquinoline-4-carboxamide]
- EC50 [1]: 0.1 to 1 µM
- IC50 [2]: 0.1 to 1 µM

Structure (SMILES): O=C(NCC(F)F)c1cc(Br)cc([N+](=O)[O-])c1N[C@@H]1CCCC[C@@H]1NC(=O)c1cncc2ccccc12 [Compound 61, N-((IS, 2R)-2-((4-bromo-2-((2,2-difluoroethyl)carbamoyl)-6-nitrophenyl)amino)cyclohexyl)isoquinoline-4-carboxamide]
- EC50 [1]: < 0.1 µM
- IC50 [2]: < 0.1 µM

Structure (SMILES): CNC(=O)c1cc(Br)cc([N+](=O)[O-])c1N[C@@H]1CCCC[C@@H]1NC(=O)c1cccnc1 [Compound 1, N-((1S, 2R)-2-((4-bromo-2-(methylcarbamoyl)-6-nitrophenyl)amino)cyclohexyl)nicotinamide]
- EC50 [1]: 1 to 10 µM
- IC50 [2]: 0.1 to 1 µM

Structure (SMILES): O=C(NC1CC(F)(F)C1)c1cc(Cl)cc([N+](=O)[O-])c1N[C@@H]1COCC[C@@H]1NC(=O)c1cncc2ccccc12 [Compound 29, N-((3S, 4S)-3-((4-chloro-2-((3,3-difluorocyclobutyl)carbamoyl)-6-nitrophenyl)amino)tetrahydro-2H-pyran-4-yl)isoquinoline-4-carboxamide]
- antiviral potency in A549 cells in comparison with compound Ref-2 [1]: better antiviral potency
- EC50 [1]: < 0.1 µM
- IC50 [2]: < 0.1 µM

Structure (SMILES): CNC(=O)c1cc(Br)cc([N+](=O)[O-])c1N[C@H]1CN(C(=O)c2cncc3ccccc23)CC12CC2 [Compound 74, (R)-5-bromo-2-((5-(isoquinoline-4-carbonyl)-5-azaspiro[2,4]heptan-7-yl)amino)-N-methyl-3-nitrobenzamide]
- EC50 [1]: < 0.1 µM
- IC50 [2]: 0.1 to 1 µM

Structure (SMILES): O=C(N[C@H]1CCOC1)c1cc(Br)cc([N+](=O)[O-])c1N[C@H]1CN(C(=O)c2cncc3ccccc23)CCC1(F)F [Compound 149, 5-bromo-2-(((S)-4,4-difluoro-1-(isoquinoline-4-carbonyl)piperidin-3-yl)amino)-3-nitro-N-((S)-tetrahydrofuran-3-yl)benzamide]
- EC50 [1]: < 0.1 µM
- IC50 [2]: < 0.1 µM

Structure (SMILES): CNC(=O)c1cc(Br)cc([N+](=O)[O-])c1N1CCC2(CCN(C(=O)c3cncc4ccccc34)C2)C1 (stereo not drawn) [Compound 66, 5-bromo-2-(7-(isoquinoline-4-carbonyl)-2,7-diazaspiro[4.4]nonan-2-yl)-N-methyl-3-nitrobenzamide]
- EC50 [1]: 0.1 to 1 µM
- IC50 [2]: 0.1 to 1 µM

Structure (SMILES): C=CCNC(=O)c1cc(Br)cc([N+](=O)[O-])c1N[C@H]1CN(C(=O)c2cncc3ccccc23)CCC1(F)F [Compound 156, (S)-N-ally1-5-bromo-2-((4,4-difluoro-1-(isoquinoline-4-carbonyl)piperidin-3-yl)amino)-3-nitrobenzamide]
- EC50 [1]: < 0.1 µM
- IC50 [2]: < 0.1 µM

Structure (SMILES): CNC(=O)c1cc(Br)cc([N+](=O)[O-])c1N[C@@H]1CCCC[C@@H]1NC(=O)c1cncc2ccc(F)cc12 [Compound 9, N-((1S, 2R)-2-((4-bromo-2-(methylcarbamoyl)-6-nitrophenyl)amino)cyclohexyl)-6-fluoroisoquinoline-4-carboxamide]
- EC50 [1]: 0.1 to 1 µM
- IC50 [2]: < 0.1 µM

Structure (SMILES): CC(C)C(Nc1c(C(=O)NC2CC(F)(F)C2)cc(Br)cc1[N+](=O)[O-])C1CN(C(=O)c2cncc3ccccc23)C1 (stereo not drawn) [Compound 116, 5-bromo-N-(3,3-difluorocyclobutyl)-2-((1-(1-(isoquinoline-4-carbonyl)azetidin-3-yl)-2-methylpropyl)amino)-3-nitrobenzamide]
- EC50 [1]: 0.1 to 1 µM
- IC50 [2]: 0.1 to 1 µM

Structure (SMILES): CNC(=O)c1cc(Cl)cc([N+](=O)[O-])c1N[C@H]1CN(C(=O)c2cncc3ccccc23)CC[C@@H]1F [Compound 96, 5-chloro-2-(((3S, 4S)-4-fluoro-1-(isoquinoline-4-carbonyl)piperidin-3-yl)amino)-N-methyl-3-nitrobenzamide]
- EC50 [1]: < 0.1 µM
- IC50 [2]: < 0.1 µM

Structure (SMILES): CN1CC[C@@H](NC(=O)c2cc(Br)cc([N+](=O)[O-])c2N[C@H]2CN(C(=O)c3cncc4ccccc34)CCC2(F)F)C1 [Compound 45, 5-bromo-2-(((S)-4,4-difluoro-1-(isoquinoline-4-carbonyl)piperidin-3-yl)amino)-N-((R)-1-methylpyrrolidin-3-yl)-3-nitrobenzamide hydrochloride]
- EC50 [1]: < 0.1 µM
- IC50 [2]: < 0.1 µM

Structure (SMILES): CC(C)(O)CNC(=O)c1cc(Br)cc([N+](=O)[O-])c1N[C@H]1CN(C(=O)c2cncc3ccccc23)CCC1(F)F [Compound 154, (S)-5-bromo-2-((4,4-difluoro-1-(isoquinoline-4-carbonyl)piperidin-3-yl)amino)-N-(2-hydroxy-2-methylpropyl)-3-nitrobenzamide]
- EC50 [1]: < 0.1 µM
- IC50 [2]: < 0.1 µM

Structure (SMILES): O=C(NCC(F)(F)F)c1cc(Br)cc([N+](=O)[O-])c1N[C@@H]1CCCC[C@@H]1NC(=O)c1cncc2ccccc12 [Compound 59, N-((1S, 2R)-2-((4-bromo-2-nitro-6-((2,2,2-trifluoroethyl)carbamoyl)phenyl)amino)cyclohexyl)isoquinoline-4-carboxamide]
- EC50 [1]: 0.1 to 1 µM
- IC50 [2]: 0.1 to 1 µM
